Data on 18 molecules can be found in PubChem BioAssay (NCI).

Structures are written as SMILES. Several values for one entry are separate records, joined by “and”; a condition that tells them apart may be missing. Identical values can stand only once.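 Results reflect a 48-hour exposure of cells in 96-well plates to compound at five concentrations. At the GI50, growth is halved. The concentration for full growth arrest is given as TGI.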

Experiment in all cases: NCI-60 cell line screen, 48 h
Assay [1] concerns LOX IMVI melanoma.
The test system of assay [2] is SK-MEL-28 melanoma.
Assay [3] concerns PC-3 prostate.
In assay [4] the test system is DU-145 prostate.
The subject of assay [5] is SF-295 CNS.
Assay [6] has as its system SNB-75 CNS.
Assay [7] has as its system IGROV1 ovarian.
The test system of assay [8] is A498 renal.
The test system of assay [9] is HCC-2998 colon.
In assay [10] the test system is RPMI-8226 leukemia.

In the case of `c1ccc(-c2nnc(Nc3ccc4c(c3)OCCO4)o2)c(NCc2ccncc2)c1`, the GI50 in assay [1] is 0.0459 µM; in assay [2], 0.0411 µM; in assay [3], 0.0301 µM; in assay [4], 0.0363 µM; in [5], 0.0136 µM; in assay [6], 0.0125 µM. Also, the GI50 was 0.0624 µM in [7], 0.0226 µM in assay [8], 0.0296 µM in assay [9] and 0.0445 µM in assay [10]. The TGI in [1] is greater than 100 µM; in assay [2], 39 µM; in assay [3] it was greater than 52.7 µM; in assay [4], 0.566 µM; in assay [5], greater than 100 µM; in assay [6], 12.1 µM. Also, the TGI in assay [7] worked out at 19.1 µM; in [8] it was 0.533 µM; in assay [9] it was 1.35 µM; in assay [10] it was 7.63 µM.

`C/C(=N\NC(=O)c1ccccc1O)c1cccc(/C(C)=N/NC(=O)c2ccccc2O)n1`: the GI50 was 0.505 µM in assay [1]; 24.4 µM and > 100 µM in assay [2]; 0.626 µM in assay [3]; 10.7 µM in assay [4]; 0.33 µM in assay [5]; 23 µM in assay [6]. In addition, the GI50 was 2.4 µM and 15.4 µM in assay [7]; 2.42 µM in assay [8]; 0.489 µM in assay [9]; greater than 100 µM in assay [10]. In addition, the TGI in [1] is greater than 100 µM; in assay [2], greater than 100 µM; in [3] it was greater than 100 µM; in [4] it was > 100 µM and 31.3 µM; in assay [5] it was 59.1 µM and > 36.1 µM; in assay [6] it was 33.5 µM and > 61.9 µM. In addition, the TGI in assay [7] was 43.8 µM and > 100 µM; in [8], > 100 µM and 16.7 µM; in [9], 11.5 µM and > 58.9 µM; in assay [10], greater than 100 µM.

Turning to `COc1cc2nc(N3CCCC3)nc(Nc3ccccc3)c2cc1OC`, the GI50 in [1] is 0.201 µM; in assay [2] it was 1.76 µM; in assay [3], 1.71 µM; in [4], 1.62 µM; in assay [5], 1.8 µM; in [6], 1.39 µM. Also, the GI50 in assay [7] was 1.38 µM; in [8], 1.02 µM; in assay [9] it was 1.9 µM; in assay [10], 1.07 µM. In addition, the TGI amounted to 0.479 µM in [1]; 3.18 µM in [2]; 3.45 µM in assay [3]; 3.07 µM in assay [4]; 3.27 µM in assay [5]; 2.7 µM in [6]. Moreover, the TGI was 2.84 µM in [7], 2.28 µM in [8], 3.65 µM in assay [9] and 4.3 µM in assay [10].

With `O=C(O)C[O][Sb][O]CC(=O)O`, the GI50 in [1], in assay [2], in assay [3], in assay [4], in assay [5] and in assay [6] was greater than 100 µM in each case. Besides, the GI50 in assay [7] and in assay [8] was greater than 100 µM in each case. Besides, the TGI in [1], in assay [2], in assay [3], in assay [4], in [5] and in assay [6] was greater than 100 µM each time. The TGI in assay [7] and in assay [8] was greater than 100 µM in each case.

As to `S=C=NCc1ccccc1`, the TGI in [1] is greater than 22.5 µM; in [2] it was 10.2 µM; in assay [3] it was 19.8 µM; in assay [4], greater than 41.2 µM; in assay [5] it was 19.4 µM; in [6], 17.1 µM. Also, the TGI is 8.17 µM in assay [7], 14 µM in assay [8], 23.1 µM in assay [9] and greater than 100 µM in assay [10].

As to `CC1=CC2=C(C(N)=O)C(=O)OC2(C)C(c2ccccc2)C1` (stereo not drawn), the TGI in assay [1], in [2], in [3], in [4], in [5] and in [6] was greater than 100 µM in each case. For the same molecule, the TGI in assay [7], in [8] and in assay [10] was greater than 100 µM in each case.

Consider `Nc1c(C(=O)c2cccc(C#CCN3CCOCC3)c2)cnn1-c1ccc(F)cc1`, for which the GI50 is greater than 25 µM in assay [1]; greater than 25 µM in assay [2]; 15.4 µM in assay [3]; greater than 25 µM in assay [4]; greater than 6.3 µM in assay [5]; greater than 6.15 µM in [6]. Moreover, the GI50 in [7] was greater than 17.2 µM; in assay [8], 11.1 µM; in assay [9], greater than 25 µM; in [10], greater than 20.8 µM. For the same molecule, the TGI in assay [1], in assay [2], in assay [3], in assay [4], in assay [5] and in assay [6] was greater than 25 µM each time. In addition, the TGI in [7], in [8], in [9] and in assay [10] was greater than 25 µM in each case.

As for `CCN(CC)CCCOc1cc(O)c2c(=O)cc(-c3ccccc3)oc2c1`, the GI50 was 3.75 µM in assay [1]; 3.42 µM in assay [2]; 10.8 µM in assay [3]; 10.2 µM in assay [4]; 11.9 µM in assay [5]; 8.36 µM in assay [6]. For the same molecule, the GI50 in assay [7] was 6.17 µM; in assay [8], 10.2 µM; in assay [9], 10.1 µM; in [10], 9.71 µM. In addition, the TGI in assay [1] stood at 14.1 µM; in [2] it was 17 µM; in assay [3], 25.3 µM; in assay [4] it was 21.8 µM; in [5] it was 28.1 µM; in [6] it was 22.3 µM. The TGI in assay [7] came out at 22.1 µM; in [8], 22.4 µM; in [9], 24.4 µM; in assay [10], 28.4 µM.

Turning to `C[C@H]1[C@H](C)CC[C@]2(C(=O)O)CC[C@]3(C)C(=CC[C@@H]4[C@@]5(C)CC[C@H](OC(=O)/C=C/c6ccc(O)cc6)C(C)(C)[C@@H]5CC[C@]43C)[C@H]12`, the GI50 was 4.73 µM in [1]; 19.1 µM in assay [2]; 6.94 µM in assay [3]; 2.32 µM in [4]; 2.27 µM in [5]; 4.82 µM in assay [6]. Besides, the GI50 in assay [7] is 8.39 µM; in assay [8], 21.1 µM; in assay [9] it was 7.37 µM; in assay [10], 5.49 µM. In addition, the TGI in assay [1] is 16.6 µM; in [2], greater than 74.5 µM; in [3], 24.6 µM; in assay [4], 13 µM; in [5] it was 7.04 µM; in assay [6], 28.9 µM. Further, the TGI in assay [7] worked out at 45.8 µM; in assay [8], 37.9 µM; in assay [9], 21.9 µM; in assay [10], 48.5 µM.

Turning to `O=C(O)c1ccc(NCc2nc3cc4ccccc4cc3[nH]2)cc1`, the TGI in assay [1] is greater than 100 µM; in assay [2], greater than 85.2 µM; in [3], greater than 100 µM; in assay [4] it was greater than 100 µM; in [5], greater than 100 µM; in assay [6], greater than 100 µM. In addition, the TGI in assay [7], in [8], in assay [9] and in [10] was greater than 100 µM each time.

With `CO/N=C(/COc1c(-c2ccccc2)oc2ccccc2c1=O)c1ccc(OC)cc1`, the GI50 in [1] is greater than 100 µM; in assay [2], greater than 100 µM; in [3], greater than 100 µM; in [4], greater than 100 µM; in assay [5], greater than 100 µM; in assay [6], 58.7 µM. Also, the GI50 in [7] was greater than 100 µM; in assay [8], 32.9 µM; in [9] it was greater than 100 µM; in assay [10], 41.9 µM. Moreover, the TGI in assay [1], in assay [2], in assay [3], in assay [4], in assay [5] and in [6] was greater than 100 µM each time. Also, the TGI in [7], in assay [8], in [9] and in assay [10] was greater than 100 µM each time.

`NC(CSc1nc2ccccn2c1[N+](=O)[O-])C(=O)O` (stereo not drawn): the TGI in assay [2], in [3], in assay [4], in assay [5], in assay [6] and in [7] was greater than 100 µM throughout. Also, the TGI in [8], in assay [9] and in assay [10] was greater than 100 µM in each case.

Regarding `CN(C)CCNC(=O)Cn1ccc(=O)c2ccc([N+](=O)[O-])cc21`, the TGI in assay [1], in assay [2], in assay [3], in assay [4], in assay [5] and in [7] was greater than 100 µM in each case. In addition, the TGI in assay [8], in assay [9] and in [10] was greater than 100 µM throughout.

Take `COc1ccc(-c2cc(-c3cn[nH]c3-c3ccccn3)ccn2)cc1`: the GI50 in assay [1], in assay [2], in [3], in assay [4], in [5] and in assay [6] was greater than 25 µM in each case. Moreover, the GI50 in [7], in [8], in assay [9] and in assay [10] was greater than 25 µM each time. Besides, the TGI in assay [1], in assay [2], in assay [3], in assay [4], in assay [5] and in assay [6] was greater than 25 µM each time. Also, the TGI in assay [7], in [8], in assay [9] and in [10] was greater than 25 µM throughout.

As to `O=C1OC(C2=CC(=O)c3ccccc3C2=O)C(Cl)=C1Cl` (stereo not drawn), the TGI in [1] was 49.9 µM; in assay [2], 96.2 µM; in assay [3], 75.5 µM; in [4], greater than 100 µM; in assay [5] it was greater than 100 µM; in assay [6], greater than 100 µM. Moreover, the TGI in assay [8] was greater than 100 µM; in [9], 61.3 µM; in assay [10] it was 47.3 µM.

Turning to `COc1ccc2c(c1)sc1nc(-c3ccccc3)c(-c3ccc(O)c(OC)c3)n12`, the GI50 is 7.67 µM in assay [1]; 8.99 µM in assay [2]; 26.3 µM in assay [3]; 35.4 µM in assay [4]; 8 µM in assay [5]; 11.1 µM in [6]. In addition, the GI50 in assay [7] was greater than 100 µM; in assay [8], 28.3 µM; in assay [9], greater than 100 µM. For the same molecule, the TGI in assay [1], in assay [2], in [3], in [4], in assay [5] and in assay [6] was greater than 100 µM in each case. Besides, the TGI in [7], in [8] and in assay [9] was greater than 100 µM in each case.

Regarding `COc1ccc(/C=C/C(=O)c2ccc3cc(OC)c(OC)cc3c2)cc1OC`, the GI50 in [1] is 2.95 µM; in [2], 11.2 µM; in assay [3], 3.08 µM; in [4] it was 4.01 µM; in assay [7], 4.72 µM; in assay [8], 2.66 µM. Further, the GI50 in assay [9] was 3.92 µM; in assay [10], 1.9 µM. The TGI in assay [1] stood at 11.2 µM; in [2] it was 32.3 µM; in assay [3], 13.3 µM; in assay [4], 15.7 µM; in [7] it was 63.4 µM; in assay [8], 23.1 µM. Besides, the TGI in [9] amounted to 13.9 µM; in assay [10], 5.07 µM.

Consider `O=C1c2cc3c(cc2[C@@H]2[C@H]1c1ccc([N+](=O)[O-])cc1C(=O)N2CCCCl)OCO3`, for which the GI50 in assay [1] was less than 0.01 µM; in [3], less than 0.01 µM; in assay [4], less than 0.01 µM; in assay [5], less than 0.01 µM; in assay [6] it was less than 0.0253 µM; in assay [7], less than 0.01 µM. Further, the figures for the GI50 in assay [8], in [9] and in assay [10] were less than 0.01 µM, 0.0164 µM and less than 0.0171 µM, respectively. For the same molecule, the TGI in assay [1] was less than 0.01 µM; in [3] it was greater than 44.5 µM; in assay [5], 11.4 µM; in assay [6] it was greater than 100 µM; in assay [7] it was greater than 100 µM; in [8], less than 0.01 µM. Moreover, the figures for the TGI in assay [9] and in assay [10] were 0.568 µM and greater than 100 µM, respectively.
